Experimental data published in patent US10450298B2, “PET Imaging agents” (Novartis AG, priority 2015, dated 2019).
pIC50: −log10 of the molar value.

Target: Recombinant human ATX (Homo sapiens (Human), UniProt Q13822)
Assay: Assessing ATX inhibition (choline release, Amplex Red fluorescence)
Assay type: biochemical
Details: ATX 10 nM, LPC 18:1 10 μM, pre-incubated at 37° C. for 20 minutes; mean of n≥2
Method: Reagents—LPC (oleoyl (18:1)) was purchased from Avanti Polar Lipids (Alabaster, Ala.) and solubilized in methanol to 20 mM. Amplex Red was obtained from Invitrogen Life Technologies (Paisley, UK) and dissolved in DMSO to 10 mM. Choline oxidase and horseradish peroxidase (HRP) were obtained from Sigma Aldrich (Dorset, UK) and dissolved in HBSS to 20 U/ml and 200 U/ml respectively. All reagents were stored at −20° C. in single use aliquots. All experimental measurements were performed in assay buffer made up immediately prior to use (HBSS, 0.01% BSA essentially fatty acid free).
Protein—Recombinant human ATX was prepared at Novartis (Basel, CH) in a human embryonic kidney (HEK) cell preparation, and stored in single use aliquots of […] (26 μM) stocks stored at −80° C.
Method—All experimental measurements should be performed in black 384 well polystyrene (low volume, round bottom, Corning (3676)) plates. PerkinElmer EnVision (Fluorescence Intensity/Absorbance Monochromator) or Tecan Infinite 200 PRO series plate reader was used to detect change in fluorescent intensity.
Assessing ATX inhibition—ATX activity was determined by measurement of released choline in reactions containing ATX (10 nM), choline oxidase (0.1 U/ml), HRP (100 U/ml), amplex red (50 μM) and LPC 18:1 (10 μM). Compounds of the invention should be prepared as 10 point serial dilutions from 1 μM in duplicate and pre-incubated with ATX at 37° C. for 20 minutes prior to the addition of remaining reagents. The liberated choline was measured from changes in fluorescence intensity (λex 530 nm, λm 590 nm) of the product resurofin at 37° C. every 2 minutes over a 40-minute period. ATX activity was measured as a slope of the linear portion of the progress curve, typically between 14 to 24 minutes.
Data analysis—Slope data was exported to Graphpad prism (Graphpad software, San Diego, Calif.) where data was fitted to equation 1. Y=Bottom+(Top−Bottom)/(1+10^((Log IC50−X)*HillSlope)) Equation 1
IC50 values were determined from the concentration of compound that reduced the total activity by 50% and represent the mean of n≥2.

SMILES | pIC50
Cc1nnn(Cc2cc(Cl)ccc2/C=C/C(=O)N2CCN(Cc3ccc(OCCOCCF)cn3)C[C@H]2C)n1 | 8.30
Cc1nnn(Cc2cc(Cl)ccc2/C=C/C(=O)N2CCN(Cc3ccc(OCCF)cn3)C[C@H]2C)n1 | 8.40
Cc1nnn(Cc2cc(C(F)(F)F)ccc2/C=C/C(=O)N2CCN(Cc3ccc(OCCOCCF)cn3)C[C@H]2C)n1 | 8.22
COc1cc(CN2CCN(C(=O)/C=C/c3ccc(Cl)cc3Cn3nnc(C)n3)CC2)ccn1 | 7.89

Stronger by pIC50, values ahead:

pIC50 | SMILES
8.52 | Cc1nnn(Cc2cc(C(F)(F)F)ccc2/C=C/C(=O)N2CCN(Cc3ccc(OCCF)cn3)C[C@H]2C)n1
8.70 | Cc1nnn(Cc2cc(C(F)(F)F)ccc2CCC(=O)N2CCN(Cc3ccc(OCCF)cn3)C[C@H]2C)n1
8.85 | Cc1nnn(Cc2cc(C(F)(F)F)ccc2/C=C/C(=O)N2CCN(Cc3coc(CF)n3)C[C@H]2C)n1
